Reference: US10844017B2, “Biaryl compound, preparation method and use thereof” (FUDAN UNIVERSITY, priority 2017, dated 2020)

What was measured:
[1] = test system: Mouse lymphoma EL4 cells transfected with RORγt plasmid; assay: Determination of the activation rate on mouse lymphoma EL4 (IL-17 generation); assay type: cell-based; settings: compound at 2 μM, 24 hours, PMA/ionomycin stimulation 4 hours, flow cytometry, read-out: +act % (activation of IL-17 generated by EL4 cells)
Description: Determination of the Activation Rate on Mouse Lymphoma EL4
Mouse lymphoma EL4 cells transfected with RORγt plasmid were cultured at 37° C. under an atmosphere with 5% CO2, with a test compound added simultaneously. After 24 hours, the generation efficiency of IL-17A was analyzed. Before collection of cells, PMA at 50 ng/mL and ionomycin at 500 ng/mL were added for stimulation for 4 hours. The proportion of IL-17 was detected by intracellular staining and flow cytometry. […] The activation rate of IL-17 generated by EL4 cells for the compound was measured at a concentration of 2 μM.

[2] = target: T1, RORγ receptor (B-RORγ LBD / Bioin-SRC1) (Homo sapiens, UniProt P51449); assay: Determination of agonistic activities on RORγ receptors in vitro (dual FRET); assay type: biochemical; settings: average of at least two independent experiments
T1 construct: 40 nM B-RORγ LBD solution
T1 sequence (P51449 269-508 limits assumed): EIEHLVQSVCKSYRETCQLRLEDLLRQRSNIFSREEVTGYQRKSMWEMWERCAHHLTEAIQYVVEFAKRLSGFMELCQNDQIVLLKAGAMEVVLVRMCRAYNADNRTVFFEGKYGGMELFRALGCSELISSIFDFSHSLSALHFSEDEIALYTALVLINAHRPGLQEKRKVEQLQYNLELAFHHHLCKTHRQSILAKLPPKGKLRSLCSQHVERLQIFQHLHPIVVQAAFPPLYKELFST
T1 sequence (Q15788 676-700 partner limits assumed): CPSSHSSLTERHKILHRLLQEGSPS
Description: Determination of Agonistic Activities of Compounds on RORγ Receptors In Vitro The agonistic activities of compounds described herein on RORγ receptor were determined by dual fluorescence resonance energy transfer (dual FRET) experiments. The agonistic activity was expressed by half maximum effect concentration (EC50).
1) Preparation of RORγ Assay Buffer
100 mL of buffer solution was well mixed with […] DTT for use.
2) Preparation of Solutions of Compounds
3) Preparation of protein mixtures a) 40 nM B-RORγ LBD solution was mixed well with 20 nM SA-APC solution and incubated for 15 minutes at room temperature. Then the resulting mixture was further mixed well with 400 nM Biotin and incubated for another 10 minutes at room temperature. […]
b) 40 nM Bioin-SRC1 solution was mixed well with 10 nM SA-eu solution and was incubated for 15 minutes at room temperature. Then the resulting mixture was further mixed well with 200 nM Biotin and was incubated for another 10 minutes at room temperature. […]
d) A mixture (25 μL) of B-RORγ LBD/SA-APC and Bioin-SRC1/SA-eu together with a test compound was added to one of the wells of a 384-well plate, and then the plate was centrifuged for one minute at 1000 rpm, and incubated at room temperature for one hour. The data were read on an Envision microplate detector and EC50 values were calculated.

Structure (SMILES)	EC50 [2] [nM]	activation at 2 µM [1] [%]
CCS(=O)(=O)c1ccc(CNC(=O)c2cc(Cl)c(-c3ccc(CC(C)C)c(C#N)c3)c(Cl)c2)cc1 [Example 47]		< 20
CCS(=O)(=O)c1ccc(CC(=O)Nc2cc(Cl)c(-c3ccc(C=C(C)C)c(C#N)c3)c(Cl)c2)cc1 [Example 40, N-(2,6-Dichloro-3′-cyano-4′-(2-methylprop-1-en-1-yl)-[1,1′-biphenyl]-4-yl)-2-(4-(ethylsulfonyl)phenyl)acetamide]		> 50
CCS(=O)(=O)c1ccc(CNC(=O)Nc2cc(Cl)c(-c3ccc(CN(C)C)c(C#N)c3)c(Cl)c2)cc1 [Example 58, 1-(2,6-Dichloro-3′-cyano-4′-((dimethylamino)methyl)-[1,1′-biphenyl]-4-yl)-3-(4-(ethylsulfonyl)benzyl)urea]	10 to 50	20 to 50
CCS(=O)(=O)c1ccc(CNC(=O)Nc2cc(Cl)c(-c3ccc(CC(C)C)c(C#N)c3)c(Cl)c2)cc1 [Example 53, 1-(2,6-Dichloro-3′-cyano-4′-isobutyl-[1,1′-biphenyl]-4-yl)-3-(4-(ethylsulfonyl)benzyl)urea]		20 to 50
CC(C)Cc1ccc(-c2c(Cl)cc(NC(=O)Cc3ccccn3)cc2Cl)cc1C#N [Example 13, N-(2,6-Dichloro-3′-cyano-4′-isobutyl-[1,1′-biphenyl]-4-yl)-2-(pyridin-2-yl)acetamide]	10 to 50	< 20
CCS(=O)(=O)c1ccc(CC(=O)Nc2cc(Cl)c(-c3ccc(CN(C)C)c(C#N)c3)c(Cl)c2)cc1 [Example 35, N-(2,6-Dichloro-3′-cyano-4′-((dimethylamino)methyl)-[1,1′-biphenyl]-4-yl)-2-(4-(ethylsulfonyl)phenyl)acetamide]		> 50
CC(C)Cc1ccc(-c2c(Cl)cc(NC(=O)Cc3cccc(C#N)c3)cc2Cl)cc1C#N [Example 12, 2-(3-cyanophenyl)-N-(2,6-dichloro-3′-cyano-4′-isobutyl-[1,1′-biphenyl]-4-yl)acetamide]	10 to 50	

Continued, in another order:

EC50 [2] [nM]	Structure (SMILES)	activation at 2 µM [1] [%]
50 to 100	CCS(=O)(=O)c1ccc(CNC(=O)c2cc(Cl)c(-c3ccc(CC(C)C)c(C#N)c3)c(Cl)c2)nc1 [Example 49, 2,6-Dichloro-3′-cyano-N-((5-(ethylsulfonyl)pyridin-2-yl)methyl)-4′-isobutyl-[1,1′-biphenyl]-4-carboxamide]	< 20
10 to 50	CCN(CC)Cc1ccc(-c2c(Cl)cc(NC(=O)Cc3ccc(S(=O)(=O)CC)cc3)cc2Cl)cc1C#N [Example 37, N-(2,6-Dichloro-3′-cyano-4′-((diethylamino)methyl)-[1,1′-biphenyl]-4-yl)-2-(4-(ethylsulfonyl)phenyl)acetamide]	20 to 50
10 to 50	CCN(CC)Cc1ccc(-c2c(Cl)cc(NC(=O)Cc3ccc(S(C)(=O)=O)cc3)cc2Cl)cc1C#N [Example 33, N-(2,6-Dichloro-3′-cyano-4′-((diethylamino)methyl)-[1,1′-biphenyl]-4-yl)-2-(4-(methylsulfonyl)phenyl)acetamide]	20 to 50
10 to 50	CCS(=O)(=O)c1ccc(CC(=O)Nc2cc(Cl)c(-c3ccc(CC(C)C)cc3)c(Cl)c2)cc1 [Example 26, N-(2,6-Dichloro-4′-isobutyl-[1,1′-biphenyl]-4-yl)-2-(4-(ethylsulfonyl)phenyl)acetamide]	< 20
10 to 50	CCS(=O)(=O)c1ccc(CCNc2cc(Cl)c(-c3ccc(CC(C)C)c(C#N)c3)c(Cl)c2)cc1 [Example 60, 2′,6′-Dichloro-4′-((4-(ethylsulfonyl)phenethyl)amino)-4-isobutyl-[1,1′-biphenyl]-3-carbonitrile]	20 to 50
50 to 100	CC(C)Cc1ccc(-c2c(Cl)cc(C(=O)NCc3ccc(S(C)(=O)=O)cn3)cc2Cl)cc1C#N [Example 50, 2,6-Dichloro-3′-cyano-4′-isobutyl-N-((5-(methylsulfonyl)pyridin-2-yl)methyl)-[1,1′-biphenyl]-4-carboxamide]	
